Reference: PubChem BioAssay AID1963872 (Molecular Pharmacology Branch, DTP, NCI, 2024)

System: KRAS patient-derived spheroids with HUVEC/MSC, viability
Experiment: Anticancer human tumor 519858-162-T-J1-PDC patient-derived colon adenocarcinoma cell line growth inhibition [KRAS2]
Settings: for IC50: curve of first compound; for viability, T/C: stronger effect = lower value
Summary of the method: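 Combination screen of spheroid viability in tumor-cell co-cultures with endothelial (HUVEC) and mesenchymal stem cell stroma. Each agent was tested in half-log dilutions, topping at clinical Cmax or at 10 microM without a known Cmax.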

[1] = second compound 0.0316 µM, first compound 0.0316 µM
[2] = second compound 0.0316 µM, first compound 0.1 µM
[3] = second compound 0.0316 µM, first compound 0.316 µM
[4] = second compound 0.0316 µM, first compound 1 µM
[5] = second compound 0.0316 µM, first compound 3.16 µM
[6] = second compound 0.0316 µM, first compound 10 µM
[7] = second compound 0.1 µM, first compound 0.0316 µM
[8] = second compound 0.1 µM, first compound 0.1 µM
[9] = second compound 0.1 µM, first compound 0.316 µM
[10] = second compound 0.1 µM, first compound 1 µM
[11] = second compound 0.1 µM, first compound 3.16 µM
[12] = second compound 0.1 µM, first compound 10 µM
[13] = second compound 0.316 µM, first compound 0.0316 µM
[14] = second compound 0.316 µM, first compound 0.1 µM
[15] = second compound 0.316 µM, first compound 0.316 µM
[16] = second compound 0.316 µM, first compound 1 µM
[17] = second compound 0.316 µM, first compound 3.16 µM
[18] = second compound 0.316 µM, first compound 10 µM
[19] = second compound 1 µM, first compound 0.0316 µM
[20] = second compound 1 µM, first compound 0.1 µM
[21] = second compound 1 µM, first compound 0.316 µM
[22] = second compound 1 µM, first compound 1 µM
[23] = second compound 1 µM, first compound 3.16 µM
[24] = second compound 1 µM, first compound 10 µM
[25] = second compound 3.16 µM, first compound 0.0316 µM
[26] = second compound 3.16 µM, first compound 0.1 µM
[27] = second compound 3.16 µM, first compound 0.316 µM
[28] = second compound 3.16 µM, first compound 1 µM
[29] = second compound 3.16 µM, first compound 3.16 µM
[30] = second compound 3.16 µM, first compound 10 µM
[31] = second compound 0.0316 µM, first compound 0.01 µM
[32] = second compound 0.1 µM, first compound 0.01 µM
[33] = second compound 0.316 µM, first compound 0.01 µM
[34] = second compound 1 µM, first compound 0.01 µM
[35] = second compound 3.16 µM, first compound 0.01 µM
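Further: compound exposure lasted seven days before readout.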
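Wherever viability, T/C is given: 100% = DMSO vehicle control viability.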

| Compound | IC50 (second compound 0.0316 µM) [nM] | IC50 (second compound 0.1 µM) [nM] | IC50 (second compound 0.316 µM) [nM] | IC50 (second compound 1 µM) [nM] | IC50 (second compound 3.16 µM) [nM] | viability, T/C [1] [%] | viability, T/C [2] [%] | viability, T/C [3] [%] | viability, T/C [4] [%] | viability, T/C [7] [%] | viability, T/C [8] [%] | viability, T/C [9] [%] | viability, T/C [10] [%] | viability, T/C [13] [%] | viability, T/C [14] [%] | viability, T/C [15] [%] | viability, T/C [16] [%] | viability, T/C [19] [%] | viability, T/C [20] [%] | viability, T/C [21] [%] | further results |
| --- | --- | --- | --- | --- | --- | --- | --- | --- | --- | --- | --- | --- | --- | --- | --- | --- | --- | --- | --- | --- | --- |
| CC(C)NCC(C(=O)N1CCN(c2ncnc3c2C(C)CC3O)CC1)c1ccc(Cl)cc1 (stereo not given) + C=CC(=O)N1CCN(c2nc(OCC3CCCN3C)nc3c2CCN(c2cccc4cccc(C)c24)C3)CC1CC#N | > 10000 | > 10000 | > 10000 | > 10000 | 1930 | 84.8 | 84.9 | 79.5 | 85.4 | 95.2 | 91.6 | 78.4 | 78 | 64.7 | 84.2 | 75.5 | 90 | 72 | 72.2 | 48.3 | viability, T/C [5]: 85.9%; viability, T/C [6]: 77.5%; viability, T/C [11]: 90.3%; viability, T/C [12]: 74.6%; viability, T/C [17]: 82.5%; viability, T/C [18]: 87%; viability, T/C [22]: 70.5%; viability, T/C [23]: 81.9%; viability, T/C [24]: 83.3%; viability, T/C [25]: 70.9%; viability, T/C [26]: 55.8%; viability, T/C [27]: 80.8%; viability, T/C [28]: 55.1%; viability, T/C [29]: 50.7%; viability, T/C [30]: 41.5% |
| CC1COCCN1c1cc(-c2ccnn2C)c2ccnc(-c3ccn[nH]3)c2n1 (stereo not given) + C=CC(=O)N1CCN(c2nc(OCC3CCCN3C)nc3c2CCN(c2cccc4cccc(C)c24)C3)CC1CC#N | 2390 | 434 | 813 | 470 | < 10 | 78.5 | 78.3 | 69.2 | 74.9 | 74 | 73.3 | 51.6 | 50.3 | 72.7 | 71.2 | 69.5 | 45.7 | 58.3 | 84.5 | 58.6 | viability, T/C [31]: 98.8%; viability, T/C [5]: 40.7%; viability, T/C [32]: 115%; viability, T/C [11]: 28.4%; viability, T/C [33]: 78.5%; viability, T/C [17]: 33.2%; viability, T/C [34]: 83.4%; viability, T/C [22]: 33.9%; viability, T/C [23]: 26.7%; viability, T/C [35]: 38.3%; viability, T/C [25]: 64.3%; viability, T/C [26]: 24.3%; viability, T/C [27]: 29.5%; viability, T/C [28]: 30.7%; viability, T/C [29]: 13.2% |
| CC1OCC2(CCN(c3cnc(Sc4ccnc(N)c4Cl)c(N)n3)CC2)C1N (stereo not given) + C=CC(=O)N1CCN(c2nc(OCC3CCCN3C)nc3c2CCN(c2cccc4cccc(C)c24)C3)CC1CC#N | > 10000 | 2280 | > 10000 | 5700 | < 31.6 | 90.8 | 84.2 | 96.5 | 85.4 | 82.5 | 75.8 | 75.7 | 55.9 | 94 | 69 | 58 | 52.8 | 87.3 | 81.1 | 62.2 | viability, T/C [5]: 64.9%; viability, T/C [6]: 53.9%; viability, T/C [11]: 46.8%; viability, T/C [12]: 48.1%; viability, T/C [17]: 67.1%; viability, T/C [18]: 62.1%; viability, T/C [22]: 82.4%; viability, T/C [23]: 54.9%; viability, T/C [24]: 41.9%; viability, T/C [25]: 33.9%; viability, T/C [26]: 42.9%; viability, T/C [27]: 42.3%; viability, T/C [28]: 52.7%; viability, T/C [29]: 25.5%; viability, T/C [30]: 30.1% |
| CCN1CCN(Cc2ccc(Nc3ncc(F)c(-c4cc(F)c5nc(C)n(C(C)C)c5c4)n3)nc2)CC1 + C=CC(=O)N1CCN(c2nc(OCC3CCCN3C)nc3c2CCN(c2cccc4cccc(C)c24)C3)CC1CC#N | > 1000 | 599 | > 1000 | 654 | > 1000 | 72.2 | 63.6 | 81.8 | 66.2 | 75.8 | 76.4 | 68.7 | 34.9 | 70.7 | 64.9 | 49.1 | 56.5 | 60.8 | 63 | 73 | viability, T/C (second compound 0.0316 µM, first compound 0.00316 µM): 76.5%; viability, T/C [31]: 57.7%; viability, T/C (second compound 0.1 µM, first compound 0.00316 µM): 81.6%; viability, T/C [32]: 79.1%; viability, T/C (second compound 0.316 µM, first compound 0.00316 µM): 61.7%; viability, T/C [33]: 78.4%; viability, T/C (second compound 1 µM, first compound 0.00316 µM): 82.1%; viability, T/C [34]: 71.8%; viability, T/C [22]: 38.4%; viability, T/C (second compound 3.16 µM, first compound 0.00316 µM): 51.3%; viability, T/C [35]: 86.8%; viability, T/C [25]: 64.4%; viability, T/C [26]: 69.2%; viability, T/C [27]: 76%; viability, T/C [28]: 37.4% |
| CCNC(=O)CC1N=C(c2ccc(Cl)cc2)c2cc(OC)ccc2-n2c(C)nnc21 (stereo not given) + C=CC(=O)N1CCN(c2nc(OCC3CCCN3C)nc3c2CCN(c2cccc4cccc(C)c24)C3)CC1CC#N | 1530 | 1730 | 1330 | 1440 | 200 | 90.5 | 76.3 | 92.1 | 57.6 | 85.5 | 93.8 | 79.7 | 59.2 | 101 | 88.3 | 66.4 | 54.1 | 89.3 | 74.6 | 70.4 | viability, T/C [5]: 42.6%; viability, T/C [6]: 31.6%; viability, T/C [11]: 40.4%; viability, T/C [12]: 27.2%; viability, T/C [17]: 40.4%; viability, T/C [18]: 22.9%; viability, T/C [22]: 58.2%; viability, T/C [23]: 35.8%; viability, T/C [24]: 20.6%; viability, T/C [25]: 69.9%; viability, T/C [26]: 55.2%; viability, T/C [27]: 46.9%; viability, T/C [28]: 33.2%; viability, T/C [29]: 29.6%; viability, T/C [30]: 18.4% |
| Cn1nccc1Nc1nccc(-c2cc3c(s2)C(C)(C)N(CCN2CCOCC2)C3=O)n1 + C=CC(=O)N1CCN(c2nc(OCC3CCCN3C)nc3c2CCN(c2cccc4cccc(C)c24)C3)CC1CC#N | 4030 | 3030 | 1690 | 693 | < 31.6 | 78.1 | 75.3 | 82.8 | 68.4 | 76.3 | 87.3 | 94.7 | 60.1 | 77.7 | 74.7 | 72 | 53.3 | 71.6 | 57.1 | 54 | viability, T/C [5]: 56.6%; viability, T/C [6]: 28.1%; viability, T/C [11]: 53.7%; viability, T/C [12]: 25.3%; viability, T/C [17]: 44.8%; viability, T/C [18]: 32.8%; viability, T/C [22]: 53%; viability, T/C [23]: 36.7%; viability, T/C [24]: 27.1%; viability, T/C [25]: 47.6%; viability, T/C [26]: 54.6%; viability, T/C [27]: 39.8%; viability, T/C [28]: 30%; viability, T/C [29]: 41.5%; viability, T/C [30]: 17.6% |
